Laboratory results: patent US20010036952A1, “Small molecule pipecolic acid derivative hair growth compositions and uses” (GPI NIL Holdings, Inc., priority 1997, published 2001)

Test system: hair growth
Test: not given
Settings: topical, but not oral, application; cited from earlier work

In the case of `C=CC[C@@H]1/C=C(\C)C[C@H](C)C[C@H](OC)[C@H]2O[C@@](O)(C(=O)C(=O)N3CCCC[C@H]3C(=O)O[C@H](/C(C)=C/[C@@H]3CC[C@@H](O)[C@H](OC)C3)[C@H](C)[C@@H](O)CC1=O)[C@H](C)C[C@@H]2OC` [FK506], the “stimulation of hair growth (in words)” value is given as “stimulates hair growth in a dose-dependent manner”.

Target: FKBP12 (Homo sapiens, UniProt P62942)
Test: Ki test procedure: inhibition of peptidyl-prolyl isomerase (rotamase) activity, chymotrypsin-coupled assay
Format: biochemical
Settings: FKBP rotamase, substrate N-succinyl-Ala-Ala-Pro-Phe-p-nitroanilide; read-out: Ki (apparent Ki, rotamase inhibition)
From the text: The inhibition of the prolyl peptidyl cis-trans isomerase activity of FKBP may be measured as an indicator of this affinity.
Inhibition of the peptidyl-prolyl isomerase (rotamase) activity of the compounds used in the inventive methods and pharmaceutical compositions can be evaluated by known methods described in the literature (Harding et al., Nature, 1989, 341:758-760; Holt et al. J. Am. Chem. Soc., 115:9923-9938).
The cis-trans isomerization of an alanine-proline bond in a model substrate, N-succinyl-Ala—Ala—Pro—Phe- p-nitroanilide, is monitored spectrophotometrically in a chymotrypsin-coupled assay, which releases para-nitroanilide from the trans form of the substrate. The inhibition of this reaction caused by the addition of different concentrations of inhibitor is determined, and the data is analyzed as a change in first-order rate constant as a function of inhibitor concentration to yield the apparent Ki values.
In a plastic cuvette are added […] of ice cold assay buffer (25 mM HEPES, pH 7.8, 100 mM NaCl), […] of FKBP (2.5 mM in 10 mM Tris-Cl pH 7.5, 100 mM NaCl, 1 mM dithiothreitol), […] of chymotrypsin (50 mg/ml in 1 mM HCl) and […] of test compound at various concentrations in dimethyl sulfoxide. The reaction is initiated by the addition of 5 mL of substrate (succinyl-Ala—Phe—Pro—Phe-para-nitroanilide, 5 mg/mL in 2.35 mM LiCl in trifluoroethanol).
The absorbance at 390 nm versus time is monitored for 90 seconds using a spectrophotometer and the rate constants are determined from the absorbance versus time data files.

FKBP12, sequence (P62942 whole entry, species assumed): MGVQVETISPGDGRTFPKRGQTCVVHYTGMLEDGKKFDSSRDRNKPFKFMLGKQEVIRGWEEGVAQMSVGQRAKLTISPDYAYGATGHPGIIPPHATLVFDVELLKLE

`O=C(C(=O)N1CCCCC1C(=O)OCc1ccccc1)c1ccccc1` (centres unmarked) [Compound 10] and `O=C(C(=O)N1CCCCC1C(=O)OCCc1ccccc1)c1ccccc1` (centres unmarked) [Compound 14] are within 1.5-fold of each other in Ki: 1500 nM for the first, 1100 nM for the second.

Going from `O=C(C(=O)N1CCCCC1C(=O)OCCCCc1ccccc1)c1ccccc1` (centres unmarked) [Compound 13] to `COc1cc(C(=O)C(=O)N2CCCCC2C(=O)OCCCCc2ccccc2)cc(OC)c1OC` (centres unmarked) [Compound 23], the Ki falls from 350 nM to 19 nM (18-fold). The second binds more tightly here.

Going from `O=C(C(=O)N1CCCCC1C(=O)OCCCCC1CCCCC1)c1ccccc1` (centres unmarked) [Compound 15] to `COC(=O)C(=O)N1CCCCC1C(=O)OCc1ccccc1` (centres unmarked) [Compound 16], the Ki rises from 400 nM to 80000 nM (200-fold).

With `O=C(C(=O)N1CCCCC1C(=O)OCc1ccccc1)c1ccco1` (centres unmarked) [Compound 20] the Ki was 3000 nM.
